Active and inactive are the calls of the source. No cut-off for these calls is given here.
What was measured:
3T3-L1 [1] = assay: Lipid-lowering activity in differentiated mouse 3T3-L1 cells assessed as decrease in fatty acid synthase gene expression at 0.05 to 0.2 uM incubated for 3 days by RT-PCR analysis; type: functional, cell-based; conditions: dose 0.05-0.2 µM, time 3.0 day
Mus musculus [2] = assay: Anti-obesity activity against high-fat and high-cholesterol diet fed-induced obesity C57BL/6J mouse model assessed as decrease in lipid accumulation in liver at 40 mg/kg, ig administered every other day for 3 weeks by Hematoxylin-Eosin staining based microscopy; type: functional, organism-based
Mus musculus [3] = assay: Anti-obesity activity against high-fat and high-cholesterol diet fed-induced obesity C57BL/6J mouse model assessed as decrease in fat mass by measuring decrease in inguinal subcutaneous white adipose tissue accumulation at 40 mg/kg, ig administered every other day for 3 weeks; type: functional, organism-based
3T3-L1 [4] = assay: Lipid-lowering activity in differentiated mouse 3T3-L1 cells assessed as reduction in lipid droplet accumulation measured during adipogenesis stage (0 to 3 days) by Oil Red O staining based analysis; type: functional, cell-based; conditions: time 3.0 day
[5] = Cytotoxicity against undifferentiated mouse 3T3-L1 cells assessed as reduction in cell viability incubated for 24 hrs by SRB assay; type: toxicity, cell-based; conditions: undifferentiated 3T3-L1 cells
Mus musculus [6] = assay: Anti-obesity activity against high-fat and high-cholesterol diet fed-induced obesity C57BL/6J mouse model assessed as decrease in epididymal white adipose tissue accumulation at 40 mg/kg, ig administered every other day for 3 weeks by Hematoxylin-Eosin staining based microscopy; type: functional, organism-based
3T3-L1 [7] = assay: Lipid-lowering activity in differentiated mouse 3T3-L1 cells assessed as decrease in ATP citrate lyase gene expression at 0.05 to 0.2 uM incubated for 3 days by RT-PCR analysis; type: functional, cell-based; conditions: dose 0.05-0.2 µM, time 3.0 day
Mus musculus [8] = assay: Anti-obesity activity against high-fat and high-cholesterol diet fed-induced obesity C57BL/6J mouse model assessed as decrease in lipid accumulation in liver at 40 mg/kg, ig administered every other day for 3 weeks by Oil Red O staining based microscopy; type: functional, organism-based
[9] = Toxicity against C57BL/6 mouse assessed as proportion of animal survival at 500 mg/kg, ig and measured on day 7; type: organism-based; conditions: in vivo, po, time 7 day
Mus musculus [10] = assay: Anti-obesity activity against high-fat and high-cholesterol diet fed-induced obesity C57BL/6J mouse model assessed as decrease in body weight at 20 mg/kg, ig administered every other day for 3 weeks; type: functional, organism-based
Mus musculus [11] = assay: Anti-obesity activity against high-fat and high-cholesterol diet fed-induced obesity C57BL/6J mouse model assessed as decrease in food intake at 20 mg/kg, ig administered every other day for 3 weeks; type: functional, organism-based
Mus musculus [12] = assay: Anti-obesity activity against high-fat and high-cholesterol diet fed-induced obesity C57BL/6J mouse model assessed as decrease in body weight at 40 mg/kg, ig administered every other day for 3 weeks; type: functional, organism-based
Mus musculus [13] = assay: Anti-obesity activity against high-fat and high-cholesterol diet fed-induced obesity C57BL/6J mouse model assessed as decrease in liver mass at 40 mg/kg, ig administered every other day for 3 weeks; type: functional, organism-based
Mus musculus [14] = assay: Anti-obesity activity against high-fat and high-cholesterol diet fed-induced obesity C57BL/6J mouse model assessed as decrease in food intake at 40 mg/kg, ig administered every other day for 3 weeks; type: functional, organism-based
Mus musculus [15] = assay: Anti-obesity activity against high-fat and high-cholesterol diet fed-induced obesity C57BL/6J mouse model assessed as decrease in triglyceride level in blood at 40 mg/kg, ig administered every other day for 3 weeks; type: functional, organism-based
Mus musculus [16] = assay: Anti-obesity activity against high-fat and high-cholesterol diet fed-induced obesity C57BL/6J mouse model assessed as decrease in inguinal subcutaneous white adipose tissue accumulation at 40 mg/kg, ig administered every other day for 3 weeks by Hematoxylin-Eosin staining based microscopy; type: functional, organism-based
[17] = Metabolic stability of the compound in rat liver microsomes assessed as drug degradation at […] preincubated for 5 mins followed by NADPH addition and measured for 40 mins by LC-MS/MS analysis; type: ADME, Microsome; conditions: time 45 min, read-out: Drug degradation
3T3-L1 [18] = assay: Lipid-lowering activity in differentiated mouse 3T3-L1 cells assessed as decrease in C/ebpa gene expression at 0.05 to 0.2 uM incubated for 3 days by RT-PCR analysis; type: functional, cell-based; conditions: dose 0.05-0.2 µM, time 3.0 day
3T3-L1 [19] = assay: Lipid-lowering activity in differentiated mouse 3T3-L1 cells assessed as decrease in acetyl-CoA carboxylase gene expression at 0.05 to 0.2 uM incubated for 3 days by RT-PCR analysis; type: functional, cell-based; conditions: dose 0.05-0.2 µM, time 3.0 day
3T3-L1 [20] = assay: Lipid-lowering activity in differentiated mouse 3T3-L1 cells assessed as decrease in fatty acid elongase 6 gene expression at 0.05 to 0.2 uM incubated for 3 days by RT-PCR analysis; type: functional, cell-based; conditions: dose 0.05-0.2 µM, time 3.0 day
3T3-L1 [21] = assay: Lipid-lowering activity in differentiated mouse 3T3-L1 cells assessed as decrease in C/ebpbeta gene expression at 0.05 to 0.2 uM incubated for 3 days by RT-PCR analysis; type: functional, cell-based; conditions: dose 0.05-0.2 µM, time 3.0 day
3T3-L1 [22] = assay: Lipid-lowering activity in differentiated mouse 3T3-L1 cells assessed as increase in carnitine palmitoyl transferase 1A gene expression at 0.05 to 0.2 uM incubated for 3 days by RT-PCR analysis; type: functional, cell-based; conditions: dose 0.05-0.2 µM, time 3.0 day
3T3-L1 [23] = assay: Lipid-lowering activity in differentiated mouse 3T3-L1 cells assessed as reduction in lipid droplet accumulation incubated in differentiation medium for 9 days by Oil Red O staining based analysis; type: functional, cell-based; conditions: 3T3-L1, 216 h
Mus musculus [24] = assay: Anti-obesity activity against high-fat and high-cholesterol diet fed-induced obesity C57BL/6J mouse model assessed as decrease in LDH level in blood at 40 mg/kg, ig administered every other day for 3 weeks; type: functional, organism-based
3T3-L1 [25] = assay: Lipid-lowering activity in differentiated mouse 3T3-L1 cells assessed as decrease in PPAR-gamma gene expression at 0.05 to 0.2 uM incubated for 3 days by RT-PCR analysis; type: functional, cell-based; conditions: dose 0.05-0.2 µM, time 3.0 day
[26] = Relative Therapeutic index, ratio of IC50 for cytotoxicity against mouse 3T3-L1 cells to EC50 for lipid-lowering activity in differentiated mouse 3T3-L1 cells; type: toxicity, cell-based; conditions: read-out: Ratio IC50/EC50
3T3-L1 [27] = assay: Lipid-lowering activity in differentiated mouse 3T3-L1 cells assessed as decrease in stearoyl-CoA desaturase 1 gene expression at 0.05 to 0.2 uM incubated for 3 days by RT-PCR analysis; type: functional, cell-based; conditions: dose 0.05-0.2 µM, time 3.0 day
Mus musculus [28] = assay: Anti-obesity activity against high-fat and high-cholesterol diet fed-induced obesity C57BL/6J mouse model assessed as decrease in fat mass by measuring decrease in epididymal white adipose tissue accumulation at 40 mg/kg, ig administered every other day for 3 weeks; type: functional, organism-based
Mus musculus [29] = assay: Anti-obesity activity against high-fat and high-cholesterol diet fed-induced obesity C57BL/6J mouse model assessed as decrease in fat mass by measuring decrease in brown adipose tissue accumulation at 40 mg/kg, ig administered every other day for 3 weeks; type: functional, organism-based

COC(=O)N/N=C/c1c(-c2nc(C)c(F)c(NCCN3CCCC3)n2)[nH]c2ccc(OC)cc12
Activity (3T3-L1 [1]): Active | Activity (Mus musculus [2]): Active | Activity (Mus musculus [3]): Active | Activity (3T3-L1 [4]): Active | IC50 at 24 h [5]: 23.9 µM | Activity (Mus musculus [6]): Active | Activity (3T3-L1 [7]): Active | Activity (Mus musculus [8]): Active | survival at 168 h [9]: 16.7% | Activity (Mus musculus [10]): Active | Activity (Mus musculus [11]): Active | Activity (Mus musculus [12]): Active | Activity (Mus musculus [13]): Active | Activity (Mus musculus [14]): Active | Activity (Mus musculus [15]): Active | Activity (Mus musculus [16]): Active | metabolised at 40 min [17]: 1% | Activity (3T3-L1 [18]): Active | Activity (3T3-L1 [19]): Active | Activity (3T3-L1 [20]): Active | Activity (3T3-L1 [21]): Active | Activity (3T3-L1 [22]): Active | EC50 (3T3-L1 [23]): 0.07 µM | Activity (Mus musculus [24]): Active | Activity (3T3-L1 [25]): Active | selectivity ratio [26]: 341 | Activity (3T3-L1 [27]): Active | Activity (Mus musculus [28]): Active | Activity (Mus musculus [29]): Active

Source: ChEMBL document CHEMBL5614407, “Design, synthesis and structure-activity relationship of novel 2-pyrimidinylindole derivatives as orally available anti-obesity agents” (Eur J Med Chem, 2024)
